What all share (assay type): cell-based
The target of assay [1] is T1, hOX1R (Homo sapiens, UniProt O43613).
T1 sequence (O43613 1-425): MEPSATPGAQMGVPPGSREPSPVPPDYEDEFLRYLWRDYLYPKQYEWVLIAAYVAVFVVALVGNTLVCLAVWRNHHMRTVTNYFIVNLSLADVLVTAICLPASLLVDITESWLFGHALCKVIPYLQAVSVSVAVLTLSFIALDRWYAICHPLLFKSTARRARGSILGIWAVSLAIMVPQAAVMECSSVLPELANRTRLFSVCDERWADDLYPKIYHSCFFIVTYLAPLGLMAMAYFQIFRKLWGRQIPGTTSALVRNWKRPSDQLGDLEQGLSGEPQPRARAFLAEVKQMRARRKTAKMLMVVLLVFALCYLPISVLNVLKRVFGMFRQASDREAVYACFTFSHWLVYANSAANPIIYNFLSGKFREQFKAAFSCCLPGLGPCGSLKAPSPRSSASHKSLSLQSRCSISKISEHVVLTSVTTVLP
As to the kind of experiment: Intracellular calcium measurements using stable-replicating cells, Method B (CHO cells, FLIPR Tetra), OX1. The settings on record: orexin A at EC75, read-out: pIC50 OX1 (converted). The procedure: (§1) Intracellular Calcium Measurements Using Stable-replicating Cells:
(§2) Human OX1 or human OX2 receptor expressing CHO cells are plated into 384 well black, clear bottom, CellBIND plates at a seeding density of 10,000 cells/75 μL growth media. The seeded plates are incubated at 37° C. in air supplemented with 5% CO2 overnight.
(§3) The next day media is removed and replaced with 30 μL/well of cell loading buffer (a vial of Calcium 5 is solubilized in 20 mL of assay buffer) and the cells incubated for 1 hr at 37° C. The serially diluted test compounds (10 μL/well) are added to the cell plate by the FLIPR Tetra and the addition is monitored for 5 mins by the instrument. The cell plate is then removed and incubated for additional 25 mins in a humidified incubator at […] prior to being placed back into the FLIPR Tetra. Finally 10 μL of orexin A in assay buffer +0.1% (w/v) bovine serum albumin is dispensed by the FLIPR Tetra at an EC75 concentration determined for each assay run. Fluorescence is measured at excitation and emission wavelengths of 485 nm and 525 nm respectively and data analyzed using GraphPad Prism for the EC75 value of orexin A and Aplus to determine an IC50 value for each test compound.

Assay [2] has as its target T1, hOX1R. As to the kind of experiment: Intracellular calcium measurements using stable-replicating cells, Method A, OX1. The conditions noted are these: orexin-A at 4×EC50, * = single experiment, read-out: pIC50 OX1 (converted). On the procedure: as §1
(§4) Method A (Table 2): Test compounds are prepared as 10 mM stock solutions in DMSO, warmed briefly for 20 seconds at 37° C. and serially diluted in half log concentrations with DMSO followed by dilution with assay buffer (HBSS (Sigma-Aldrich, H8264) containing 10 mM HEPES (Invitrogen, 15630080) and pH adjusted to 7.4) to a top final assay concentration of 10 μM.
(§5) Human OX1 (CT-A674) and human OX2 (CT-A675) receptor-expressing stable-replicating cells are grown in a culture medium, Ham F12 (Invitrogen, 31765-035) containing 10% fetal bovine serum (Invitrogen, 16000044), 1% non-essential amino acids (Invitrogen, 11140-050), 100 U/mL Penicillin/Streptomycin (Invitrogen, 15140-122) and G418 (Invitrogen, 11811023) at a concentration of 400 μg/mL. The cells are seeded at a density of 7,000 cells/well into black, clear bottom 384-well plates (Corning, 3683) and incubated at 37° C. in air supplemented with 5% CO2 for 16 hrs.
(§6) Loading dye (25 μL/well), prepared from a FLIPR Calcium 6 Assay kit (Molecular Devices, R8190-Explorer) according to the manufacturer's instructions, and the serially diluted test compounds (10 μL/well) are added to the plate. The plate is then incubated for 30 mins at 37° C. in 5% CO2, then for 30 mins at ambient temperature and placed into a FlexStation III reader.
On the technique in general: Calcium flux is commonly read through the fluorescence of an indicator in the cells.

Assay [3] has as its target T2, hOX2R (Homo sapiens, UniProt O43614).
T2 sequence (O43614 1-444): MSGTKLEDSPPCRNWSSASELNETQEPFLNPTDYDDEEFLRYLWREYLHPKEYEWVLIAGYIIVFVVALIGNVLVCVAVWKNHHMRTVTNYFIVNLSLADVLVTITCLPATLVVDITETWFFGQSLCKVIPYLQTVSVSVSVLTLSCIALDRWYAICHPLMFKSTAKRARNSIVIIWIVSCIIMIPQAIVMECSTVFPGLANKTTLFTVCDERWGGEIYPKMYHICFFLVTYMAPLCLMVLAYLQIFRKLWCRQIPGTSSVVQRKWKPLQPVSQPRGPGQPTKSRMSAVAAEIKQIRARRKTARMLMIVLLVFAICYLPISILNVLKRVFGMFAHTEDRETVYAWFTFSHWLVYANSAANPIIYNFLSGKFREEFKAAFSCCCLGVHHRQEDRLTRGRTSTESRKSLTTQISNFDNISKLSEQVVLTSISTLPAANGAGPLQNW
Briefly: Intracellular calcium measurements using stable-replicating cells, Method A, OX2. The conditions noted are these: orexin-A at 4×EC50, * = single experiment, read-out: pIC50 OX2 (converted). On the procedure: as §1, §4, §5, §6

In assay [4] the target is T2, hOX2R. As to the kind of experiment: Intracellular calcium measurements using stable-replicating cells, Method B (CHO cells, FLIPR Tetra), OX2. The conditions noted are these: orexin A at EC75, read-out: pIC50 OX2 (converted). The procedure:
as §1, §2, §3

Assay [5] deals with T1, hOX1R. As to the kind of experiment: Intracellular calcium measurements using division-arrested cells, OX1. The conditions noted are these: agonist orexin A at 2×EC50, * = single experiment, otherwise average of at least two, read-out: pIC50 OX1 (converted). The essentials:
(§7)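 Division-arrested cells expressing human OX1 or OX2 were seeded for 16 h, then loaded with Calcium 5 dye plus probenecid for 1 h at 37 °C. Compounds in HEPES-buffered HBSS with 0.1% BSA, pH 7.4, top final concentration 10 μM, were added 10 min before the FlexStation calcium read.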

Assay [6] addresses T2, hOX2R. Briefly: Intracellular calcium measurements using division-arrested cells, OX2. The conditions noted are these: agonist orexin B at 2×EC50, * = single experiment, otherwise average of at least two, read-out: pIC50 OX2 (converted). The essentials: as §7

The structures appear in SMILES notation.

Take `CC[C@@H](CNc1nc2ccccc2s1)N(C)C(=O)c1cc(Cl)ccc1-n1nccn1` [Example 44, (S)—N-(1-(benzo[d]thiazol-2-ylamino)butan-2-yl)-5-chloro-N-methyl-2-(2H-1,2,3-triazol-2-yl)benzamide]: the IC50 in assay [1] is 1.58 nM; in assay [2], 7.94 nM.
Turning to `CC[C@@H](CNc1ccc(Cl)cn1)N(C)C(=O)c1cc(C)c(C)cc1-n1nccn1` [Example 86, (S)—N-(1-((5-chloropyridin-2-yl)amino)butan-2-yl)-N,4,5-trimethyl-2-(2H-1,2,3-triazol-2-yl)benzamide], the IC50 in assay [2] is 7.94 nM; in assay [3] it was 316 nM.
For `CC[C@@H](CNc1ncc(C(F)(F)F)cn1)N(C)C(=O)c1nccc2ccccc12` [Example 85, (S)—N-methyl-N-(1-((5-(trifluoromethyl)pyrimidin-2-yl)amino)butan-2-yl)isoquinoline-1-carboxamide], the IC50 in assay [1] is 100 nM; in assay [2] it was 50.1 nM; in assay [3], 3160 nM.
For the compound `CC[C@@H](CNc1nc2ccccc2o1)N(C)C(=O)c1cc(Cl)ccc1-n1nccn1` [Example 43, (S)—N-(1-(benzo[d]oxazol-2-ylamino)butan-2-yl)-5-chloro-N-methyl-2-(2H-1,2,3-triazol-2-yl)benzamide], the IC50 is 0.794 nM in assay [1], 794 nM in assay [4], 10 nM in assay [2] and 1000 nM in assay [3].
Turning to `CC[C@@H](CNc1ncc(Cl)cc1[N+](=O)[O-])N(C)C(=O)c1cc(Cl)ccc1-n1nccn1` [Example 45, (S)-5-chloro-N-(1-((5-chloro-3-nitropyridin-2-yl)amino)butan-2-yl)-N-methyl-2-(2H-1,2,3-triazol-2-yl)benzamide], the IC50 was 126 nM in assay [2] and above 10000 nM in assay [3].
In the case of `CC[C@@H](CNc1ncc(Cl)cc1N)N(C)C(=O)c1cc(Cl)ccc1-n1nccn1` [Example 60, (S)—N-(1-((3-amino-5-chloropyridin-2-yl)amino)butan-2-yl)-5-chloro-N-methyl-2-(2H-1,2,3-triazol-2-yl)benzamide], the IC50 in assay [2] is 39.8 nM; in assay [3], above 10000 nM.
In the case of `CC[C@@H](CNc1ncc(C(F)(F)F)cn1)N(C)C(=O)c1nc(C)cc2ccccc12` [Example 78, (S)—N,3-dimethyl-N-(1-((5-(trifluoromethyl)pyrimidin-2-yl)amino)butan-2-yl)isoquinoline-1-carboxamide], the IC50 in assay [1] was 15.8 nM; in assay [2], 25.1 nM; in assay [3], 1000 nM.
`CC[C@@H](CNc1ccc(C(F)(F)F)nn1)N(C)C(=O)c1cc(Cl)ccc1-n1nccn1` [Example 41, (S)-5-chloro-N-methyl-2-(2H-1,2,3-triazol-2-yl)-N-(1-((6-(trifluoromethyl)pyridazin-3-yl)amino)butan-2-yl)benzamide]: the IC50 in assay [1] was 20 nM; in assay [4], above 5010 nM; in assay [5] it was 200 nM; in assay [6], above 10000 nM.
In the case of `CC[C@@H](CNc1ccc(Cl)cn1)N(C)C(=O)c1cc(Br)ccc1-n1nccn1` [Example 19, (S)-5-bromo-N-(1-((5-chloropyridin-2-yl)amino)butan-2-yl)-N-methyl-2-(2H-1,2,3-triazol-2-yl)benzamide], the IC50 in assay [1] was 1.58 nM; in assay [4], 501 nM; in assay [5], 25.1 nM; in assay [6], 1580 nM.
In the case of `Cc1nc(-c2ccccc2)c(C(=O)N(C)[C@H](CNc2ccc(Cl)cn2)CC(C)C)s1` [Example 9, (S)—N-(1-((5-chloropyridin-2-yl)amino)-4-methylpentan-2-yl)-N,2-dimethyl-4-phenylthiazole-5-carboxamide], the IC50 was 251 nM in assay [5], 2000 nM in assay [2], above 10000 nM in assay [3] and above 10000 nM in assay [6].
With `CC[C@@H](CNc1ncc(C(F)(F)F)cn1)N(C)C(=O)c1cc(Cl)ccc1-n1nccn1` [Example 39, (S)-5-chloro-N-methyl-2-(2H-1,2,3-triazol-2-yl)-N-(1-((5-(trifluoromethyl)pyrimidin-2-yl)amino)butan-2-yl)benzamide], the IC50 in assay [4] is 1580 nM; in assay [3], above 10000 nM; in assay [6] it was 1000 nM.
As to `CC[C@@H](CNc1ccc(Cl)cn1)N(C)C(=O)c1cc(C)ccc1-n1nccn1` [Example 1, (S)—N-(1-((5-chloropyridin-2-yl)amino)butan-2-yl)-N,5-dimethyl-2-(2H-1,2,3-triazol-2-yl)benzamide], the IC50 in assay [3] was 1260 nM; in assay [6], 1000 nM.
As to `Cc1ccc(-n2nccn2)c(C(=O)N(C)[C@H](CNc2ncc(C(F)(F)F)cn2)CC(F)(F)F)n1` [Example 88, (S)—N,6-dimethyl-3-(2H-1,2,3-triazol-2-yl)-N-(4,4,4-trifluoro-1-((5-(trifluoromethyl)pyrimidin-2-yl)amino)butan-2-yl)picolinamide], the IC50 in assay [1] is 10 nM; in assay [2], 39.8 nM; in assay [3] it was above 10000 nM.
For `Cc1nc(-c2ccccc2)c(C(=O)N[C@H](CNc2ccc(Cl)cn2)C(C)C)s1` [Example 6, (S)—N-(1-((5-chloropyridin-2-yl)amino)-3-methylbutan-2-yl)-2-methyl-4-phenylthiazole-5-carboxamide], the IC50 in assay [5] is 501 nM; in assay [2], 3160 nM; in assay [3], above 10000 nM; in assay [6] it was above 10000 nM.
For the compound `CC[C@@H](CNc1nc2ccccc2o1)N(C)C(=O)c1nc(C)ccc1-n1nccn1` [Example 62, (S)—N-(1-(benzo[d]oxazol-2-ylamino)butan-2-yl)-N,6-dimethyl-3-(2H-1,2,3-triazol-2-yl)picolinamide], the figures for the IC50 in assay [1], in assay [4] and in assay [2] were 3.16 nM, 2510 nM and 5.01 nM, respectively.
As for `CC[C@@H](CNc1nc2cc(Cl)ccc2o1)N(C)C(=O)c1nc(C)ccc1-n1nccn1` [Example 64, (S)—N-(1-((5-chlorobenzo[d]oxazol-2-yl)amino)butan-2-yl)-N,6-dimethyl-3-(2H-1,2,3-triazol-2-yl)picolinamide], the IC50 was 5.01 nM in assay [2] and 2510 nM in assay [3].

These data come from US10611760B2, “Therapeutic compounds as inhibitors of the orexin-1 receptor” (C4X Discovery Limited, priority 2014, dated 2020).
